Assay results: ChEMBL document CHEMBL3098125, “Synthesis, anti-HIV activity, integrase enzyme inhibition and molecular modeling of catechol, hydroquinone and quinol labdane analogs” (Bioorg Med Chem Lett, 2014)
Activity calls are given as the source filed them. No cut-off for these calls is given here.

How the values were obtained:
[1] = target: Human immunodeficiency virus type 1 integrase (Human immunodeficiency virus 1) (UniProt Q7ZJM1); experiment: (§1) Inhibition of HIV1 integrase
[2] = target: Human immunodeficiency virus type 1 integrase (Human immunodeficiency virus 1, UniProt Q7ZJM1); experiment: as §1
[3] = Therapeutic index, ratio of CC50 for human TZM-bl cells to IC50 for HIV1 NL4.3 infected in human TZM-bl cells; assay type: cell-based; conditions: HIV1 NL4.3 infected TZM-bl cells, read-out: Ratio CC50/IC50
[4] = test system: Human immunodeficiency virus 1; experiment: Antiviral activity against HIV1 NL4.3 infected in human TZM-bl cells expressing CXCR4-tropic incubated for 1 hr prior to infection measured after 48 hrs by luciferase reporter gene assay; assay type: functional, organism-based; conditions: Human immunodeficiency virus 1, NL4.3, TZM-bl
[5] = Cytotoxicity against human TZM-bl cells assessed as cell viability after 48 hrs by MTT assay; assay type: cell-based; conditions: for CC50 at 48 h: TZM-bl cells
[6] = test system: Human immunodeficiency virus 1; experiment: Antiviral activity against HIV1 NL4.3 infected in human TZM-bl cells expressing CXCR4-tropic at 50 uM incubated for 1 hr prior to infection measured after 48 hrs by luciferase reporter gene assay; assay type: functional, organism-based

Human immunodeficiency virus type 1 integrase (Human immunodeficiency virus 1), sequence (Q7ZJM1 as listed by the source): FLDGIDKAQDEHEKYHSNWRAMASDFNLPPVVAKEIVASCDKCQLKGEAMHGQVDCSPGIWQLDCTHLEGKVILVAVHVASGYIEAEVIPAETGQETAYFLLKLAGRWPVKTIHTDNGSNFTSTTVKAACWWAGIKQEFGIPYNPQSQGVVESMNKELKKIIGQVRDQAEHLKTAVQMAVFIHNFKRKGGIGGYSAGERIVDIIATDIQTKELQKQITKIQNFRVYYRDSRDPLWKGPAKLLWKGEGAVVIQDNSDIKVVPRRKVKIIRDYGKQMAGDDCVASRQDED
Human immunodeficiency virus type 1 integrase, sequence (Q7ZJM1 whole entry): as the sequence (Q7ZJM1 as listed by the source) above

Compound | inhibition [1] | IC50 [2] [µM] | IC50 ([4]; read-out: IC50) [µM] | IC50 ([4]; read-out: pIC50 (converted)) [µM] | selectivity ratio [3] | CC50 at 48 h [5] [µM] | Activity [6] | CC50 ([5]; tzm, 48 h)
CC(C)=CCCC1=CCc2c(O)ccc(O)c2C1 | – | – | – | – | – | – | inactive | Not Active
COC(=O)C12C=CC(=O)C(O)=C1CC(CC/C=C(\C)C=O)=CC2 (stereo not drawn) | – | – | 172 | 170 | 4 | 625 | – | –
COC(=O)C12C=CC(=O)C(O)=C1CC(CC/C=C(\C)CO)=CC2 (stereo not drawn) | – | – | 285 | 282 | 1 | 383 | – | –
COC(=O)C12C=CC(=O)C(O)=C1CC=C(C)C2C/C=C(\C)C=O (stereo not drawn) | – | – | 60.7 | 60.3 | 10 | 627 | – | –
COC(=O)C12C=CC(=O)C(O)=C1CC(CCC=C(C)C)=CC2 (stereo not drawn) | – | – | 171 | 170 | 4 | 693 | – | –
COC(=O)C12C=CC(=O)C(O)=C1CC=C(C)C2C/C=C(\C)CO (stereo not drawn) | – | – | 72.7 | 72.4 | 13 | 928 | – | –

Continued by falling IC50 ([4]; read-out: IC50), values first:

inhibition [1] | IC50 [2] [µM] | IC50 ([4]; read-out: IC50) [µM] | IC50 ([4]; read-out: pIC50 (converted)) [µM] | Compound | selectivity ratio [3] | CC50 at 48 h [5] [µM] | Activity [6] | CC50 ([5]; tzm, 48 h)
– | – | 36.7 | 36.3 | COC(=O)C12C=CC(=O)C(OC(C)=O)=C1CC=C(C)C2CC=C(C)C (stereo not drawn) | 18 | 677 | – | –
Dose-dependent effect | 11.5 | 12.4 | 12.3 | CC(C)=CCC1C(C)=CCc2c(O)ccc(O)c21 (stereo not drawn) | 11 | 140 | – | –
Dose-dependent effect | 13.4 | 12.3 | 12.3 | CC(C)=CCCC1=CCc2ccc(O)c(O)c2C1 | 11 | 138 | – | –
– | – | 10 | 10 | C=C(C=O)[C@@H]1C[C@@]2(C)C(=CC1=O)[C@H](OC(=O)/C(C)=C/C(C)CCCC)CC[C@@H]2C(=O)O (stereo partly drawn) | – | – | – | –
– | – | 5 | 5.01 | COC(=O)C12C=CC(=O)C(O)=C1CC=C(C)C2CC=C(C)C (stereo not drawn) | 11 | 56.4 | – | –
Dose-dependent effect | 11.1 | 4.6 | 4.57 | CC(C)=CCC1C(C)=CCc2c1ccc(O)c2O (stereo not drawn) | 46 | 211 | – | –
– | – | 0.5 | 0.501 | Cc1nnc(C(=O)NC(C)(C)c2nc(C(=O)NCc3ccc(F)cc3)c(O)c(=O)n2C)o1 | – | 856 | – | –
